≈ marks a conversion by molar mass, not a printed value.
Assays:
Assay type in all cases: functional
Candida tropicalis = test: Antifungal activity against Candida tropicalis CGMCC 2.3739 assessed as inhibition of visible growth
Candida albicans [1] = test: Antifungal activity against Candida albicans SC 5314 assessed as inhibition of visible growth
Cryptococcus neoformans = test: Antifungal activity against Cryptococcus neoformans CGMCC 2.3161 assessed as inhibition of visible growth
Pichia kudriavzevii = test: Antifungal activity against Candida krusei AS 2.1045 assessed as inhibition of visible growth
Nakaseomyces glabratus = test: Antifungal activity against Clinical isolate Candida glabrata assessed as inhibition of visible growth
Candida parapsilosis = test: Antifungal activity against Candida parapsilosis GIM 2.190 assessed as inhibition of visible growth; settings: Lodderomyces parapsilosis
Candida albicans [2] = test: Antifungal activity against Candida albicans CPCC 400616 assessed as inhibition of visible growth

Row | MIC80 (Candida tropicalis) [µg/mL] | MIC80 (Candida albicans [1]) [µg/mL] | MIC80 (Cryptococcus neoformans) [µg/mL] | MIC80 (Pichia kudriavzevii) [µg/mL] | MIC80 (Nakaseomyces glabratus) [µg/mL] | MIC80 (Candida parapsilosis) [µg/mL] | MIC80 (Candida albicans [2]) [µg/mL] | SMILES
1 | 0.006 (≈ 0.0123 µM) | 0.006 (≈ 0.0123 µM) | 0.012 (≈ 0.0246 µM) | 0.012 (≈ 0.0246 µM) | 0.025 (≈ 0.0513 µM) | 0.006 (≈ 0.0123 µM) | 0.006 (≈ 0.0123 µM) | CN(Cc1ccc(-c2ccc(Cl)c(F)c2)cc1)CC(O)(Cn1cncn1)c1ccc(F)cc1F (stereo unspecified)
2 | 0.025 (≈ 0.0545 µM) | 0.025 (≈ 0.0545 µM) | 0.4 (≈ 0.872 µM) | 0.4 (≈ 0.872 µM) | 0.4 (≈ 0.872 µM) | 0.1 (≈ 0.218 µM) | 0.05 (≈ 0.109 µM) | CN(Cc1ccc(-c2ccc(Cl)cc2)o1)CC(O)(Cn1cncn1)c1ccc(F)cc1F (stereo unspecified)
3 | 0.025 (≈ 0.0574 µM) | 0.012 (≈ 0.0276 µM) | 0.1 (≈ 0.23 µM) | 0.2 (≈ 0.459 µM) | 0.8 (≈ 1.84 µM) | 0.025 (≈ 0.0574 µM) | 0.025 (≈ 0.0574 µM) | CN(Cc1ccc(-c2ccccc2)cn1)CC(O)(Cn1cncn1)c1ccc(F)cc1F (stereo unspecified)
4 | 0.006 (≈ 0.0114 µM) | 0.006 (≈ 0.0114 µM) | 0.05 (≈ 0.0953 µM) | 0.05 (≈ 0.0953 µM) | 0.1 (≈ 0.191 µM) | 0.006 (≈ 0.0114 µM) | 0.012 (≈ 0.0229 µM) | CN(Cc1ccc(-c2ccc(OC(F)(F)F)cc2)s1)CC(O)(Cn1cncn1)c1ccc(F)cc1F (stereo unspecified)
5 | 0.012 (≈ 0.0238 µM) | 0.012 (≈ 0.0238 µM) | 0.025 (≈ 0.0497 µM) | 0.025 (≈ 0.0497 µM) | 0.2 (≈ 0.397 µM) | 0.006 (≈ 0.0119 µM) | 0.012 (≈ 0.0238 µM) | CN(Cc1ccc(-c2ccc(C(F)(F)F)cc2)nc1)CC(O)(Cn1cncn1)c1ccc(F)cc1F (stereo unspecified)
6 | 0.012 (≈ 0.0231 µM) | 0.012 (≈ 0.0231 µM) | 0.012 (≈ 0.0231 µM) | 0.025 (≈ 0.0482 µM) | 0.025 (≈ 0.0482 µM) | 0.006 (≈ 0.0116 µM) | 0.012 (≈ 0.0231 µM) | CN(Cc1ccc(-c2ccc(OC(F)(F)F)cc2)cc1)CC(O)(Cn1cncn1)c1ccc(F)cc1F (stereo unspecified)
7 | 0.012 (≈ 0.0231 µM) | 0.012 (≈ 0.0231 µM) | 0.025 (≈ 0.0481 µM) | 0.025 (≈ 0.0481 µM) | 0.05 (≈ 0.0963 µM) | 0.006 (≈ 0.0116 µM) | 0.012 (≈ 0.0231 µM) | CN(Cc1ccc(-c2ccc(OC(F)(F)F)cc2)cn1)CC(O)(Cn1cncn1)c1ccc(F)cc1F (stereo unspecified)
8 | 0.006 (≈ 0.0118 µM) | 0.025 (≈ 0.0491 µM) | 0.4 (≈ 0.785 µM) | 0.2 (≈ 0.393 µM) | 0.2 (≈ 0.393 µM) | 0.05 (≈ 0.0981 µM) | 0.025 (≈ 0.0491 µM) | CN(Cc1cnc(-c2ccc(C(F)(F)F)cc2)s1)CC(O)(Cn1cncn1)c1ccc(F)cc1F (stereo unspecified)
9 | 0.025 (≈ 0.0481 µM) | 0.012 (≈ 0.0231 µM) | 0.05 (≈ 0.0963 µM) | 0.025 (≈ 0.0481 µM) | 0.05 (≈ 0.0963 µM) | 0.006 (≈ 0.0116 µM) | 0.012 (≈ 0.0231 µM) | CN(Cc1ccc(-c2ccc(OC(F)(F)F)cc2)nc1)CC(O)(Cn1cncn1)c1ccc(F)cc1F (stereo unspecified)
10 | 0.012 (≈ 0.0235 µM) | 0.012 (≈ 0.0235 µM) | 0.05 (≈ 0.0977 µM) | 0.1 (≈ 0.195 µM) | 0.1 (≈ 0.195 µM) | 0.012 (≈ 0.0235 µM) | 0.012 (≈ 0.0235 µM) | CN(Cc1ccc(-c2ccc(-c3ccccc3)cc2)cn1)CC(O)(Cn1cncn1)c1ccc(F)cc1F (stereo unspecified)
11 | 0.025 (≈ 0.0491 µM) | 0.012 (≈ 0.0236 µM) | 0.2 (≈ 0.393 µM) | 0.8 (≈ 1.57 µM) | 3.2 (≈ 6.28 µM) | 0.012 (≈ 0.0236 µM) | 0.025 (≈ 0.0491 µM) | CN(Cc1nc(-c2ccc(C(F)(F)F)cc2)cs1)CC(O)(Cn1cncn1)c1ccc(F)cc1F (stereo unspecified)
12 | 0.4 (≈ 0.84 µM) | 0.2 (≈ 0.42 µM) | 1.6 (≈ 3.36 µM) | 1.6 (≈ 3.36 µM) | 1.6 (≈ 3.36 µM) | 0.4 (≈ 0.84 µM) | 0.2 (≈ 0.42 µM) | CN(Cc1cnc(-c2ccc(Cl)cc2)s1)CC(O)(Cn1cncn1)c1ccc(F)cc1F (stereo unspecified)

Second part, the compound before the results:

Row | SMILES | MIC80 (Candida tropicalis) [µg/mL] | MIC80 (Candida albicans [1]) [µg/mL] | MIC80 (Cryptococcus neoformans) [µg/mL] | MIC80 (Pichia kudriavzevii) [µg/mL] | MIC80 (Nakaseomyces glabratus) [µg/mL] | MIC80 (Candida parapsilosis) [µg/mL] | MIC80 (Candida albicans [2]) [µg/mL]
13 | CN(Cc1nc(-c2ccc(OC(F)(F)F)cc2)cs1)CC(O)(Cn1cncn1)c1ccc(F)cc1F (stereo unspecified) | 0.025 (≈ 0.0476 µM) | 0.012 (≈ 0.0228 µM) | 0.1 (≈ 0.19 µM) | 0.2 (≈ 0.381 µM) | 0.4 (≈ 0.761 µM) | 0.025 (≈ 0.0476 µM) | 0.025 (≈ 0.0476 µM)
14 | CN(Cc1ccc(-c2ccc(Cl)cc2)c(F)c1)CC(O)(Cn1cncn1)c1ccc(F)cc1F (stereo unspecified) | 0.006 (≈ 0.0123 µM) | 0.006 (≈ 0.0123 µM) | 0.012 (≈ 0.0246 µM) | 0.025 (≈ 0.0513 µM) | 0.025 (≈ 0.0513 µM) | 0.006 (≈ 0.0123 µM) | 0.006 (≈ 0.0123 µM)
15 | CN(Cc1ccc(-c2ccc(Cl)cc2)nc1)CC(O)(Cn1cncn1)c1ccc(F)cc1F (stereo unspecified) | 0.012 (≈ 0.0255 µM) | 0.012 (≈ 0.0255 µM) | 0.05 (≈ 0.106 µM) | 0.025 (≈ 0.0532 µM) | 0.1 (≈ 0.213 µM) | 0.006 (≈ 0.0128 µM) | 0.012 (≈ 0.0255 µM)
16 | CN(Cc1ccc(-c2ccc(Cl)cc2)cc1F)CC(O)(Cn1cncn1)c1ccc(F)cc1F (stereo unspecified) | 0.006 (≈ 0.0123 µM) | 0.006 (≈ 0.0123 µM) | 0.012 (≈ 0.0246 µM) | 0.025 (≈ 0.0513 µM) | 0.025 (≈ 0.0513 µM) | 0.006 (≈ 0.0123 µM) | 0.006 (≈ 0.0123 µM)
17 | CN(Cc1ccc(-c2ccc(OCC(F)(F)F)cc2)cn1)CC(O)(Cn1cncn1)c1ccc(F)cc1F (stereo unspecified) | 0.012 (≈ 0.0225 µM) | 0.012 (≈ 0.0225 µM) | 0.1 (≈ 0.187 µM) | 0.05 (≈ 0.0937 µM) | 0.1 (≈ 0.187 µM) | 0.012 (≈ 0.0225 µM) | 0.012 (≈ 0.0225 µM)
18 | CN(Cc1cnc(-c2ccc(OC(F)(F)F)cc2)s1)CC(O)(Cn1cncn1)c1ccc(F)cc1F (stereo unspecified) | 0.006 (≈ 0.0114 µM) | 0.025 (≈ 0.0476 µM) | 0.1 (≈ 0.19 µM) | 0.1 (≈ 0.19 µM) | 0.2 (≈ 0.381 µM) | 0.05 (≈ 0.0951 µM) | 0.025 (≈ 0.0476 µM)
19 | CN(Cc1ccc(-c2ccccc2Cl)cn1)CC(O)(Cn1cncn1)c1ccc(F)cc1F (stereo unspecified) | 0.012 (≈ 0.0255 µM) | 0.025 (≈ 0.0532 µM) | 0.1 (≈ 0.213 µM) | 0.4 (≈ 0.851 µM) | 0.8 (≈ 1.7 µM) | 0.025 (≈ 0.0532 µM) | 0.1 (≈ 0.213 µM)
20 | CN(Cc1ccc(-c2ccc(Cl)cc2)cn1)CC(O)(Cn1cncn1)c1ccc(F)cc1F (stereo unspecified) | 0.012 (≈ 0.0255 µM) | 0.012 (≈ 0.0255 µM) | 0.025 (≈ 0.0532 µM) | 0.05 (≈ 0.106 µM) | 0.05 (≈ 0.106 µM) | 0.006 (≈ 0.0128 µM) | 0.012 (≈ 0.0255 µM)
21 | CN(Cc1ccc(-c2ccc(C(F)(F)F)cc2)o1)CC(O)(Cn1cncn1)c1ccc(F)cc1F (stereo unspecified) | 0.012 (≈ 0.0244 µM) | 0.025 (≈ 0.0508 µM) | 0.4 (≈ 0.812 µM) | 0.2 (≈ 0.406 µM) | 0.2 (≈ 0.406 µM) | 0.05 (≈ 0.102 µM) | 0.025 (≈ 0.0508 µM)
22 | OC(CN(Cc1ccc(-c2ccc(Cl)cc2)cc1)C1CC1)(Cn1cncn1)c1ccc(F)cc1F (stereo unspecified) | > 3.2 | > 3.2 | > 3.2 | > 3.2 | > 3.2 | > 3.2 | > 3.2
23 | CN(Cc1nc(-c2ccc(Cl)cc2)cs1)CC(O)(Cn1cncn1)c1ccc(F)cc1F (stereo unspecified) | 0.025 (≈ 0.0525 µM) | 0.012 (≈ 0.0252 µM) | 0.8 (≈ 1.68 µM) | 0.2 (≈ 0.42 µM) | 0.4 (≈ 0.84 µM) | 0.012 (≈ 0.0252 µM) | 0.012 (≈ 0.0252 µM)
24 | COc1ccc(-c2ccc(CN(C)CC(O)(Cn3cncn3)c3ccc(F)cc3F)nc2)cc1 (stereo unspecified) | 0.012 (≈ 0.0258 µM) | 0.012 (≈ 0.0258 µM) | 0.4 (≈ 0.859 µM) | 0.1 (≈ 0.215 µM) | 0.4 (≈ 0.859 µM) | 0.025 (≈ 0.0537 µM) | 0.012 (≈ 0.0258 µM)
25 | CN(Cc1ccc(-c2ccc(C#N)cc2)cn1)CC(O)(Cn1cncn1)c1ccc(F)cc1F (stereo unspecified) | 0.012 (≈ 0.0261 µM) | 0.012 (≈ 0.0261 µM) | 0.8 (≈ 1.74 µM) | 0.2 (≈ 0.434 µM) | 1.6 (≈ 3.47 µM) | 0.1 (≈ 0.217 µM) | 0.012 (≈ 0.0261 µM)
26 | [2H]C([2H])([2H])N(Cc1ccc(-c2ccc(Cl)cc2)cc1)CC(O)(Cn1cncn1)c1ccc(F)cc1F (stereo unspecified) | 0.006 (≈ 0.0127 µM) | 0.006 (≈ 0.0127 µM) | 0.012 (≈ 0.0254 µM) | 0.012 (≈ 0.0254 µM) | 0.012 (≈ 0.0254 µM) | 0.006 (≈ 0.0127 µM) | 0.006 (≈ 0.0127 µM)
27 | CN(Cc1ccc(-c2ccccc2F)cn1)CC(O)(Cn1cncn1)c1ccc(F)cc1F (stereo unspecified) | 0.012 (≈ 0.0265 µM) | 0.012 (≈ 0.0265 µM) | 0.1 (≈ 0.221 µM) | 0.4 (≈ 0.882 µM) | 0.8 (≈ 1.76 µM) | 0.012 (≈ 0.0265 µM) | 0.025 (≈ 0.0551 µM)
28 | CN(Cc1ccc(-c2ccc(C(F)(F)F)cc2)cn1)CC(O)(Cn1cncn1)c1ccc(F)cc1F (stereo unspecified) | 0.012 (≈ 0.0238 µM) | 0.012 (≈ 0.0238 µM) | 0.025 (≈ 0.0497 µM) | 0.05 (≈ 0.0993 µM) | 0.05 (≈ 0.0993 µM) | 0.006 (≈ 0.0119 µM) | 0.012 (≈ 0.0238 µM)

Source: ChEMBL document CHEMBL6182926, “Design, Synthesis, and Biological Activity Evaluation of Deuterated Diphenyl Azole Alcohol-Based CYP51 Inhibitors” (J Med Chem, 2025)
